In ChEMBL document CHEMBL1201862, “PubChem BioAssay data set” (2004):
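Each compound was tested at five concentrations against cells in 96-well plates for 48 hours. Abbreviation: GI50, concentration required for 50% inhibition of growth.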 Activity calls are given as the source filed them. Cut-off read from the data, not from the text of the source: active = GI50 up to about 1.1 µM and inactive = higher.

Columns and labels:
Experiment in all cases: NCI tumour cell line growth inhibition, 48 h
[1] = test system: MOLT-4
[2] = test system: SN12C
[3] = test system: SK-MEL-5
[4] = test system: SF-295
[5] = test system: HOP-92
[6] = test system: UO-31
[7] = test system: SF-268
[8] = test system: M14
[9] = test system: NCI/ADR-RES
[10] = test system: HCC 2998
[11] = test system: T47D
[12] = test system: LOX IMVI
[13] = test system: Hs-578T
[14] = test system: NCI-H522
[15] = test system: RPMI-8226
[16] = test system: U-251
[17] = test system: UACC-257
[18] = test system: K562
[19] = test system: A498
[20] = test system: CCRF-CEM

Row | Structure (SMILES) | GI50 [1] | GI50 [2] | GI50 [3] | GI50 [4] | GI50 [5] | GI50 [6] | GI50 [7] | GI50 [8] | GI50 [9] | GI50 [10] | GI50 [11] | GI50 [12] | GI50 [13] | GI50 [14] | GI50 [15] | GI50 [16] | GI50 [17] | GI50 [18] | GI50 [19] | GI50 [20]
1 | C1CNCCNCCN1 | > 100 µM (inactive) | > 100 µM (inactive) | > 100 µM (inactive) | > 100 µM (inactive) | > 100 µM (inactive) | > 100 µM (inactive) | > 100 µM (inactive) | > 100 µM (inactive) | > 100 µM (inactive) | > 100 µM (inactive) | > 100 µM (inactive) | > 100 µM (inactive) | > 100 µM (inactive) | > 100 µM (inactive) | > 100 µM (inactive) | > 100 µM (inactive) | > 100 µM (inactive) | > 100 µM (inactive) | > 100 µM (inactive) | > 100 µM (inactive)
2 | O=C(Cc1ccccc1)NNc1nc(NNC(=O)c2ccncc2)nc(Nc2ccc([N+](=O)[O-])cc2)n1 | > 10 µM (inactive) | > 10 µM (inactive) | > 10 µM (inactive) | > 10 µM (inactive) | > 10 µM (inactive) | > 10 µM (inactive) | > 10 µM (inactive) | > 10 µM (inactive) | > 10 µM (inactive) | > 10 µM (inactive) | > 10 µM (inactive) | > 10 µM (inactive) | > 10 µM (inactive) | > 10 µM (inactive) | > 10 µM (inactive) | > 10 µM (inactive) | 5.69 µM (inactive) | 6.19 µM (inactive) | > 10 µM (inactive) | 7.57 µM (inactive)
3 | CN(CCCNC(=O)c1nn(-c2ccc(Cl)cc2Cl)c2c1Cc1ccccc1-2)CCCNC(=O)c1nn(-c2ccc(Cl)cc2Cl)c2c1Cc1ccccc1-2 | 1.32 µM (inactive) | 1.67 µM (inactive) | 1.68 µM (inactive) | 1.72 µM (inactive) | 1.61 µM (inactive) | 1.82 µM (inactive) | 1.96 µM (inactive) | 1.8 µM (inactive) | 1.87 µM (inactive) | 1.64 µM (inactive) | 1.92 µM (inactive) | 1.67 µM (inactive) | 2.74 µM (inactive) | 1.43 µM (inactive) | 1.21 µM (inactive) | 1.79 µM (inactive) | 1.81 µM (inactive) | 0.944 µM (active) | 1.71 µM (inactive) | 0.993 µM (active)
4 | C[C@H](NC(=O)C(C)(Cc1ccc(O)cn1)NC(=O)c1ccccc1)c1ccccc1 (stereo not given in full) | > 100 µM (inactive) | > 100 µM (inactive) | > 100 µM (inactive) | > 100 µM (inactive) | > 100 µM (inactive) | > 100 µM (inactive) | > 100 µM (inactive) | > 100 µM (inactive) | > 100 µM (inactive) | > 100 µM (inactive) | > 100 µM (inactive) | > 100 µM (inactive) | > 100 µM (inactive) | > 100 µM (inactive) | > 100 µM (inactive) | > 100 µM (inactive) | > 100 µM (inactive) | > 100 µM (inactive) | > 100 µM (inactive) | > 100 µM (inactive)
5 | O=C(COC(c1ccc(F)cc1)c1ccc(F)cc1)N1CCN(CCCc2ccccc2)CC1 | 4.66 µM (inactive) | 3.01 µM (inactive) | 2.65 µM (inactive) | 4.04 µM (inactive) | 2.55 µM (inactive) | 1.7 µM (inactive) | 3.88 µM (inactive) | 4.32 µM (inactive) | 2.72 µM (inactive) | 3.59 µM (inactive) | 3.3 µM (inactive) | 4.91 µM (inactive) | 11.1 µM (inactive) | 4.4 µM (inactive) | 3.39 µM (inactive) | 4.16 µM (inactive) | 3.38 µM (inactive) | 3.88 µM (inactive) | 3.08 µM (inactive) | 7.62 µM (inactive)
6 | CC12CP(=O)(O)CC1C2(Cl)Cl (stereo not given) | > 100 µM (inactive) | > 100 µM (inactive) | > 100 µM (inactive) | > 100 µM (inactive) | > 100 µM (inactive) | 50.6 µM (inactive) | > 100 µM (inactive) | > 100 µM (inactive) | > 100 µM (inactive) | > 100 µM (inactive) | > 100 µM (inactive) | > 100 µM (inactive) | > 100 µM (inactive) | > 100 µM (inactive) | > 100 µM (inactive) | > 100 µM (inactive) | > 100 µM (inactive) | > 100 µM (inactive) | > 100 µM (inactive) | > 100 µM (inactive)
7 | CSc1nc(C)c2c(n1)N(c1ccc(Cl)cc1)CC2 | > 100 µM (inactive) | > 100 µM (inactive) | > 100 µM (inactive) | > 100 µM (inactive) | > 100 µM (inactive) | 0.342 µM (active) | > 100 µM (inactive) | > 100 µM (inactive) | > 100 µM (inactive) | > 100 µM (inactive) | > 100 µM (inactive) | > 100 µM (inactive) | > 100 µM (inactive) | > 100 µM (inactive) | > 100 µM (inactive) | > 100 µM (inactive) | > 100 µM (inactive) | 88.3 µM (inactive) | > 100 µM (inactive) | > 100 µM (inactive)
8 | COc1ccc(OC)c(CSc2ccc(OC)c(OC)c2)c1 | 43.2 µM (inactive) | > 100 µM (inactive) | 45.4 µM (inactive) | > 81.5 µM (inactive) | > 52.2 µM (inactive) | 55.3 µM (inactive) | > 100 µM (inactive) | > 100 µM (inactive) | > 70.8 µM (inactive) | 97.1 µM (inactive) | 10.6 µM (inactive) | > 64.6 µM (inactive) | > 100 µM (inactive) | > 90.2 µM (inactive) | > 84.7 µM (inactive) | > 94.2 µM (inactive) | > 83.4 µM (inactive) | 74.8 µM (inactive) | 38.8 µM (inactive) | > 100 µM (inactive)
9 | COC(=O)NC(Nc1ccc(Cl)cc1Cl)(C(F)(F)F)C(F)(F)F | 37.8 µM (inactive) | 80.4 µM (inactive) | 26.7 µM (inactive) | > 100 µM (inactive) | 73.3 µM (inactive) | 18 µM (inactive) | 60.4 µM (inactive) | 52.4 µM (inactive) | 86.5 µM (inactive) | 45.7 µM (inactive) | 47 µM (inactive) | 40.6 µM (inactive) | > 100 µM (inactive) | 37.1 µM (inactive) | 31.7 µM (inactive) | 54.1 µM (inactive) | > 100 µM (inactive) | 2.85 µM (inactive) | 33.2 µM (inactive) | 28.5 µM (inactive)
